Measurements taken from the CheMixHub drug solubility set.

Test: xn = mol fraction of the nth substance listed, in the solute-free solvent

NC(N)=C([N+](=O)[O-])[N+](=O)[O-] + CS(C)=O + CCC(C)=O
solubility (g/100 g solution)
Details	293.15 K	298.15 K	303.15 K	308.15 K	313.15 K	318.15 K	323.15 K	328.15 K	333.15 K
x2 = 0.1228	2.96	3.02	3.23	3.43	3.66	3.88	4.15	4.41	4.69
x2 = 0.2395	6.6	7.02	7.36	7.71	8.11	8.5	8.9	9.32	9.81
x2 = 0.3506	10.8	11.4	11.7	12.2	12.7	13.1	13.6	14.2	14.8
x2 = 0.4565	14.7	15.3	15.7	16.2	16.7	17.2	17.8	18.4	19
x2 = 0.5575	18.4	19.1	19.6	20	20.6	21.1	21.7	22.4	23
x2 = 0.6539	21.6	22.1	22.7	23.2	23.8	24.4	25	25.6	26.4
x2 = 0.7462	24.1	24.8	25.3	25.7	26.3	26.9	27.5	28.1	28.8
x2 = 0.8344	26.2	26.7	27.2	27.7	28.2	28.8	29.4	30	30.7
x2 = 0.9189	27.9	28.7	29.2	29.6	30.1	30.6	31.2	31.9	32.5

NC(N)=C([N+](=O)[O-])[N+](=O)[O-] + CS(C)=O + CC(=O)CC(C)C
solubility (g/100 g solution)
Details	293.15 K	298.15 K	303.15 K	308.15 K	313.15 K	318.15 K	323.15 K	328.15 K	333.15 K
x2 = 0.1634	1.9	1.97	2.1	2.25	2.41	2.57	2.74	2.92	3.13
x2 = 0.3054	5.11	5.4	5.7	5.99	6.28	6.6	6.95	7.29	7.68
x2 = 0.4297	9.16	9.64	10	10.4	10.8	11.2	11.7	12.2	12.7
x2 = 0.5397	13.1	13.7	14.2	14.6	15.1	15.6	16.1	16.7	17.2
x2 = 0.6375	17	17.6	18.1	18.6	19	19.6	20.1	20.7	21.3
x2 = 0.7251	20.2	21	21.5	21.9	22.5	23.1	23.7	24.3	25
x2 = 0.804	23.2	23.8	24.3	24.8	25.3	25.9	26.6	27.2	27.8
x2 = 0.8755	25.6	26.3	26.8	27.2	27.8	28.4	28.9	29.6	30.2
x2 = 0.9406	27.4	28.5	29	29.5	30.1	30.6	31.2	31.8	32.4

Cc1ccc(-c2cc(C(F)(F)F)nn2-c2ccc(S(N)(=O)=O)cc2)cc1 + CN1CCCC1=O + CCCO
solubility (g/100 g solution)
Details	x2 = 0.06311	x2 = 0.1316	x2 = 0.2062	x2 = 0.2878	x2 = 0.3774	x2 = 0.4763	x2 = 0.5858	x2 = 0.708	x2 = 0.8451
293.15 K	5.07	5.58	6.56	6.91	7.25	9.83	11.2	13.6	16.9
298.15 K	5.96	6.26	6.96	7.72	8.23	10.3	12.2	14.6	18
303.15 K	6.68	7.1	7.85	8.74	9.16	11.9	13.4	16.3	19.6
308.15 K	7.49	8.17	9.06	9.84	10	12.7	14.5	17.3	21.1
313.15 K	8.6	9.28	9.59	10.3	10.6	13.5	15.8	19	22.6

O=c1cc(CBr)c2ccccc2[nH]1 + CCCO + O
solubility (g/100 g solution)
Details	278.15 K	283.15 K	288.15 K	293.15 K	298.15 K	303.15 K	308.15 K	313.15 K	318.15 K
x2 = 0.03225	0.0181	0.0232	0.0292	0.0365	0.0451	0.0563	0.0686	0.0826	0.0993
x2 = 0.06974	0.0316	0.038	0.0464	0.0561	0.0674	0.0807	0.0957	0.112	0.131
x2 = 0.1139	0.0465	0.0552	0.0643	0.0756	0.0895	0.104	0.119	0.138	0.157
x2 = 0.1666	0.0629	0.0722	0.084	0.096	0.11	0.125	0.142	0.159	0.18
x2 = 0.2307	0.0788	0.0907	0.102	0.115	0.131	0.146	0.164	0.181	0.202
x2 = 0.3103	0.0908	0.103	0.115	0.13	0.144	0.161	0.18	0.198	0.218
x2 = 0.4117	0.0987	0.11	0.124	0.14	0.155	0.172	0.189	0.207	0.229
x2 = 0.5454	0.103	0.114	0.128	0.141	0.156	0.173	0.189	0.209	0.228
x2 = 0.7297	0.102	0.112	0.124	0.138	0.151	0.166	0.183	0.2	0.217

Nc1cc(-c2ccncc2)c[nH]c1=O + OCCO + O
solubility (g/100 g solution)
Details	278.15 K	283.15 K	288.15 K	293.15 K	298.15 K	303.15 K	308.15 K	313.15 K	318.15 K	323.15 K
x2 = 0.03125	0.000969	0.00114	0.00136	0.0016	0.00188	0.00216	0.00248	0.00283	0.00323	0.00367
x2 = 0.06767	0.00136	0.0016	0.00191	0.00224	0.00262	0.00301	0.00345	0.00393	0.00447	0.00508
x2 = 0.1107	0.00187	0.00221	0.00263	0.0031	0.00358	0.00411	0.00469	0.00542	0.00618	0.00703
x2 = 0.1622	0.00264	0.00312	0.00368	0.00432	0.00505	0.00577	0.00658	0.00746	0.00845	0.00955
x2 = 0.225	0.0034	0.00407	0.00476	0.00562	0.00649	0.00751	0.00852	0.00976	0.0111	0.0126
x2 = 0.3034	0.00444	0.00524	0.00616	0.00725	0.00846	0.00962	0.0109	0.0124	0.014	0.0158
x2 = 0.4038	0.00528	0.00637	0.00751	0.00882	0.0103	0.0117	0.0131	0.0148	0.0168	0.0189
x2 = 0.5373	0.00588	0.00697	0.00817	0.00966	0.0113	0.0128	0.0146	0.0165	0.0186	0.021
x2 = 0.7232	0.00648	0.00764	0.00919	0.0108	0.0123	0.014	0.016	0.0178	0.0199	0.0224

CC(C)C(=O)Nc1ccc([N+](=O)[O-])c(C(F)(F)F)c1 + C1COCCO1 + O
solubility (g/100 g solution)
Details	283.15 K	288.15 K	293.15 K	298.15 K	303.15 K	308.15 K	313.15 K	318.15 K	323.15 K
x2 = 0.02222	0.00748	0.00971	0.0126	0.0163	0.0208	0.0262	0.033	0.0406	0.0498
x2 = 0.04865	0.0654	0.0845	0.108	0.135	0.17	0.212	0.26	0.316	0.382
x2 = 0.0806	0.391	0.472	0.574	0.691	0.832	0.993	1.17	1.38	1.63
x2 = 0.12	1.34	1.61	1.89	2.2	2.56	2.98	3.46	3.97	4.55
x2 = 0.1698	3.72	4.33	5.02	5.81	6.62	7.58	8.62	9.74	11
x2 = 0.2348	7.42	8.68	9.98	11.4	13	14.8	16.6	18.7	20.9
x2 = 0.3231	12.2	14.1	16.3	18.5	20.8	23.4	26.1	28.9	31.9
x2 = 0.45	18.1	20.6	23.5	26.6	29.8	33.3	36.7	40.4	44.1
x2 = 0.648	24.9	28	31.2	34.6	38.2	41.8	45.6	49.4	53.2

c1ccc2c(c1)CCc1ccccc1N2 + OCCO + O
solubility (g/100 g solution)
Details	283.15 K	288.15 K	293.15 K	298.15 K	303.15 K	308.15 K	313.15 K	318.15 K	323.15 K	328.15 K
x2 = 0.03125	0.0117	0.0166	0.0228	0.032	0.0373	0.0524	0.0651	0.088	0.117	0.153
x2 = 0.06775	0.0425	0.0584	0.0728	0.0999	0.124	0.165	0.207	0.265	0.333	0.406
x2 = 0.1107	0.0709	0.0954	0.123	0.162	0.202	0.258	0.32	0.397	0.49	0.598
x2 = 0.1615	0.0799	0.106	0.135	0.174	0.214	0.272	0.331	0.404	0.491	0.593
x2 = 0.2258	0.0897	0.118	0.144	0.179	0.221	0.265	0.32	0.381	0.455	0.558
x2 = 0.3035	0.0971	0.123	0.148	0.178	0.215	0.256	0.304	0.359	0.421	0.515
x2 = 0.4027	0.107	0.131	0.154	0.184	0.223	0.261	0.313	0.359	0.402	0.47
x2 = 0.5389	0.114	0.14	0.166	0.197	0.232	0.272	0.308	0.353	0.401	0.458
x2 = 0.7239	0.117	0.139	0.167	0.197	0.231	0.263	0.296	0.329	0.366	0.411
